This passage reports EC50 and Emax results from US12281149B2, “Modulators of G-protein coupled receptors” (priority 2021, dated 2025).

Assay type in all cases: cell-based
Assay [1] has as its target T1, GLP-1 receptor (Homo sapiens, UniProt P43220). Briefly: PathHunter β-arrestin assay, GLP-1 receptor. Further details: host or cells: PathHunter CHO-K1 GLP1R β-Arrestin Cell Line. The note with it: β-arrestin-2 recruitment, PathHunter CHO-K1 GLP1R β-Arrestin Cell Line, 90 min at 37° C.; normalized to GLP-1; read-out: GLP-1R β Arrestin EC50. In general terms: Activated receptors often draw arrestin, which recruitment assays turn into a signal.

For assay [2], the target named is T2, GIP receptor (Homo sapiens, UniProt P48546).
T2 sequence (P48546 22-466): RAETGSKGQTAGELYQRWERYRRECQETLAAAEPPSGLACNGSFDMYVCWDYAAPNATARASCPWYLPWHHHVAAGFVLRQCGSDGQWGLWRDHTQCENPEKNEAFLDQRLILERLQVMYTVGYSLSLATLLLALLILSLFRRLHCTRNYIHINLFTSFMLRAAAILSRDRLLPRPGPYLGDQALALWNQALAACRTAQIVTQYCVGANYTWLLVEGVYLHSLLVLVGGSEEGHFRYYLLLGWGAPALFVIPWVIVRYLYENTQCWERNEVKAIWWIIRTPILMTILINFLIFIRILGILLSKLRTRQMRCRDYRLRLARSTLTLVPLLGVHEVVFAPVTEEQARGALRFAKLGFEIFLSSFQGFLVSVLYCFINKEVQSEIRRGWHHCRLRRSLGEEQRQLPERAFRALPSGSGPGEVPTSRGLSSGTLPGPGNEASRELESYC
Nature of the assay: PathHunter β-arrestin assay, GIP receptor. As to conditions: β-arrestin-2 recruitment, PathHunter CHO-K1 GIPR β-Arrestin Cell Line, 90 min at 37° C.; normalized to GIP; read-out: GIPR β Arrestin EC50. Further details: host or cells: PathHunter CHO-K1 GIPR β-Arrestin Cell Line.

Assay [3] has as its target T1, GLP-1 receptor. Briefly: HitHunter cAMP assay, GLP-1 receptor. The note with it: for EC50: CHO cells stably expressing human GLP-1 receptor, cAMP accumulation, 30 min, read-out: EC50 GLP-1R; for Emax: CHO cells, cAMP, normalized to maximum signal from GLP-1 (high) and DMSO (low), read-out: Emax GLP-1R. In general terms: Changes in cAMP serve as a functional read-out for many G protein-coupled receptors.

For assay [4], the target named is T2, GIP receptor. Briefly: HitHunter cAMP assay, GIP receptor. As to conditions: for EC50: CHO cells stably expressing GIP receptor, cAMP accumulation, 30 min, read-out: EC50 GIP-1R; for Emax: CHO cells, cAMP, normalized to maximum signal from GIP (high) and DMSO (low), read-out: Emax GIP-1R.

*1 amine or outer side, *2 acyl side, *3 side chain or, on linkers, in order; H or OH if unused. Where a SMILES comes first, the peptide text is derived from it. Side-chain parts run from the residue outwards. [ ]: non-standard residue; d: D form. The star is where a group is joined. Isobutyryl(2-(3-CN-5-F-Ph)) = CC(C)(C(=O)*)c1cc(F)cc(C#N)c1; C20 diacid = O=C(O)CCCCCCCCCCCCCCCCCCC(=O)*; γGlu = O=C(O)[C@H](CCC(=O)[*:2])N[*:1]; X81 = CCC(CC)(C(=O)*)c1cc(F)cc(C#N)c1; X65 = CC(C)(C(=O)*)c1cc(N)cc(F)c1; NMeβAla = CN(CCC(=O)[*:2])[*:1]; X42 = CCOc1cnn(C(C)(C)C(=O)*)c1; β3hA = C[C@H](N)CC(=O)O; AEEA = NCCOCCOCC(=O)O; Aib = CC(C)(N)C(=O)O; βAla = NCCC(=O)O

T1 sequence (P43220 24-463): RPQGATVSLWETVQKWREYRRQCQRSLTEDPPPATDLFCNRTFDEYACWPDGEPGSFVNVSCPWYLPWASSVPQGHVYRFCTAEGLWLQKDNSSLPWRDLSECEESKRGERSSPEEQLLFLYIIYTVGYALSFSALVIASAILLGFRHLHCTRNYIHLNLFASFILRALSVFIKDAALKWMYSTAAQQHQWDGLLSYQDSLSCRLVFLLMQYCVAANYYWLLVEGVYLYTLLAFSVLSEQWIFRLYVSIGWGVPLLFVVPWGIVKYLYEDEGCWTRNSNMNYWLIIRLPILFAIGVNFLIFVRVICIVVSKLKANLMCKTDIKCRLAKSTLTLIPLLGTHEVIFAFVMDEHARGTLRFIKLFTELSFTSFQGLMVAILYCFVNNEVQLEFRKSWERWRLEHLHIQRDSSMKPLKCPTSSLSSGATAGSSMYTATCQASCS

Take `CC[C@H](C)[C@H](NC(=O)[C@H](CC(C)C)NC(=O)[C@H](Cc1c[nH]c2ccccc12)NC(=O)[C@H](CCC(N)=O)NC(=O)[C@@H](NC(=O)[C@H](Cc1ccccc1)NC(=O)[C@H](C)NC(=O)[C@H](CCCCNC(=O)COCCOCCNC(=O)COCCOCCNC(=O)CC[C@H](NC(=O)CCCCCCCCCCCCCCCCCCC(=O)O)C(=O)O)NC(=O)[C@H](CCC(N)=O)NC(=O)[C@H](C)NC(=O)[C@@H](NC(=O)[C@H](CCCCN)NC(=O)[C@H](CC(=O)O)NC(=O)[C@H](CC(C)C)NC(=O)C(C)(C)NC(=O)[C@@H](NC(=O)[C@H](CO)NC(=O)[C@H](Cc1ccc(O)cc1)NC(=O)[C@H](CC(=O)O)NC(=O)[C@H](CO)NC(=O)[C@@H](NC(=O)[C@H](Cc1ccccc1)NC(=O)[C@@H](NC(=O)CNC(=O)[C@H](CCC(=O)O)NC(=O)CCN(C)C(=O)C(C)(C)c1cc(F)cc(C#N)c1)[C@@H](C)O)[C@@H](C)O)[C@@H](C)CC)[C@@H](C)CC)C(C)C)C(=O)N[C@@H](C)C(=O)NCC(=O)NCC(=O)N1CCC[C@H]1C(=O)N[C@@H](CO)C(=O)N[C@@H](CO)C(=O)NCC(=O)N[C@@H](C)C(=O)N1CCC[C@H]1C(=O)N1CCC[C@H]1C(=O)N1CCC[C@H]1C(=O)N[C@@H](CO)C(N)=O` [Compound 201] ({Isobutyryl(2-(3-CN-5-F-Ph))}-[NMeβAla]EGTFTSDYSI[Aib]LDKIAQK([AEEA-AEEA-γGlu-C20 diacid])AFVQWLIAGGPSSGAPPPS-NH2): the EC50 (in general, the concentration at which the effect is half-maximal) in assay [1] was greater than 1 µM; in assay [2], greater than 1 µM; in assay [3], 0.01 to 0.1 µM; in assay [4] it was 0.1 to 1 µM. For the same compound, the figures for the maximum response (Emax) in assay [3] and in assay [4] were 108% and 107%, respectively.
As for `CC[C@H](C)[C@H](NC(=O)[C@H](CC(C)C)NC(=O)[C@H](Cc1c[nH]c2ccccc12)NC(=O)[C@H](CCC(N)=O)NC(=O)[C@@H](NC(=O)[C@H](Cc1ccccc1)NC(=O)[C@H](C)NC(=O)[C@H](CCCCNC(=O)COCCOCCNC(=O)COCCOCCNC(=O)CC[C@H](NC(=O)CCCCCCCCCCCCCCCCCCC(=O)O)C(=O)O)NC(=O)[C@H](CCC(N)=O)NC(=O)[C@H](C)NC(=O)[C@@H](NC(=O)[C@H](CCCCN)NC(=O)[C@H](CC(=O)O)NC(=O)[C@H](CC(C)C)NC(=O)C(C)(C)NC(=O)[C@@H](NC(=O)[C@H](CO)NC(=O)[C@H](Cc1ccc(O)cc1)NC(=O)[C@H](CC(=O)O)NC(=O)[C@H](CO)NC(=O)[C@@H](NC(=O)[C@H](Cc1ccccc1)NC(=O)[C@@H](NC(=O)CNC(=O)[C@H](CCC(=O)O)NC(=O)C[C@H](C)NC(=O)C(C)(C)c1cc(F)cc(C#N)c1)[C@@H](C)O)[C@@H](C)O)[C@@H](C)CC)[C@@H](C)CC)C(C)C)C(=O)N[C@@H](C)C(=O)NCC(=O)NCC(=O)N1CCC[C@H]1C(=O)N[C@@H](CO)C(=O)N[C@@H](CO)C(=O)NCC(=O)N[C@@H](C)C(=O)N1CCC[C@H]1C(=O)N1CCC[C@H]1C(=O)N1CCC[C@H]1C(=O)N[C@@H](CO)C(N)=O` [Compound 222] ({Isobutyryl(2-(3-CN-5-F-Ph))}-[β3hA]EGTFTSDYSI[Aib]LDKIAQK([AEEA-AEEA-γGlu-C20 diacid])AFVQWLIAGGPSSGAPPPS-NH2), the EC50 in assay [1] is greater than 1 µM; in assay [2], greater than 1 µM; in assay [3] it was 0.0001 to 0.001 µM; in assay [4], 0.01 to 0.1 µM. Moreover, the Emax (usually the greatest response seen or fitted, relative to the assay's reference) in assay [3] was found to be 108%; in assay [4], 101%.
Take `CC[C@H](C)[C@H](NC(=O)[C@H](CC(C)C)NC(=O)[C@H](Cc1c[nH]c2ccccc12)NC(=O)[C@H](CCC(N)=O)NC(=O)[C@@H](NC(=O)[C@H](Cc1ccccc1)NC(=O)[C@H](C)NC(=O)[C@H](CCCCNC(=O)COCCOCCNC(=O)COCCOCCNC(=O)CC[C@H](NC(=O)CCCCCCCCCCCCCCCCCCC(=O)O)C(=O)O)NC(=O)[C@H](CCC(N)=O)NC(=O)[C@H](C)NC(=O)[C@@H](NC(=O)[C@H](CCCCN)NC(=O)[C@H](CC(=O)O)NC(=O)[C@H](CC(C)C)NC(=O)C(C)(C)NC(=O)[C@@H](NC(=O)[C@H](CO)NC(=O)[C@H](Cc1ccc(O)cc1)NC(=O)[C@H](CC(=O)O)NC(=O)[C@H](CO)NC(=O)[C@@H](NC(=O)[C@H](Cc1ccccc1)NC(=O)[C@@H](NC(=O)CNC(=O)[C@H](CCC(=O)O)NC(=O)CCNC(=O)C(C)(C)c1cc(N)cc(F)c1)[C@@H](C)O)[C@@H](C)O)[C@@H](C)CC)[C@@H](C)CC)C(C)C)C(=O)N[C@@H](C)C(=O)NCC(=O)NCC(=O)N1CCC[C@H]1C(=O)N[C@@H](CO)C(=O)N[C@@H](CO)C(=O)NCC(=O)N[C@@H](C)C(=O)N1CCC[C@H]1C(=O)N1CCC[C@H]1C(=O)N1CCC[C@H]1C(=O)N[C@@H](CO)C(N)=O` [Compound 133] ({X65-βAla}-EGTFTSDYSI[Aib]LDKIAQK([AEEA-AEEA-γGlu-C20 diacid])AFVQWLIAGGPSSGAPPPS-NH2): the concentration for a half-maximal effect (EC50) in assay [1] was greater than 1 µM; in assay [2], greater than 1 µM; in assay [3], 0.0001 to 0.001 µM; in assay [4], 0.1 to 1 µM. The figures for the Emax in assay [3] and in assay [4] were 104% and 107%, respectively.
On to `CC[C@H](C)[C@H](NC(=O)[C@H](CC(C)C)NC(=O)[C@H](Cc1c[nH]c2ccccc12)NC(=O)[C@H](CCC(N)=O)NC(=O)[C@@H](NC(=O)[C@H](Cc1ccccc1)NC(=O)[C@H](C)NC(=O)[C@H](CCCCNC(=O)COCCOCCNC(=O)COCCOCCNC(=O)CC[C@H](NC(=O)CCCCCCCCCCCCCCCCCCC(=O)O)C(=O)O)NC(=O)[C@H](CCC(N)=O)NC(=O)[C@H](C)NC(=O)[C@@H](NC(=O)[C@H](CCCCN)NC(=O)[C@H](CC(=O)O)NC(=O)[C@H](CC(C)C)NC(=O)C(C)(C)NC(=O)[C@@H](NC(=O)[C@H](CO)NC(=O)[C@H](Cc1ccc(O)cc1)NC(=O)[C@H](CC(=O)O)NC(=O)[C@H](CO)NC(=O)[C@@H](NC(=O)[C@H](Cc1ccccc1)NC(=O)[C@@H](NC(=O)CNC(=O)[C@H](CCC(=O)O)NC(=O)CCNC(=O)C(CC)(CC)c1cc(F)cc(C#N)c1)[C@@H](C)O)[C@@H](C)O)[C@@H](C)CC)[C@@H](C)CC)C(C)C)C(=O)N[C@@H](C)C(=O)NCC(=O)NCC(=O)N1CCC[C@H]1C(=O)N[C@@H](CO)C(=O)N[C@@H](CO)C(=O)NCC(=O)N[C@@H](C)C(=O)N1CCC[C@H]1C(=O)N1CCC[C@H]1C(=O)N1CCC[C@H]1C(=O)N[C@@H](CO)C(N)=O` [Compound 162] ({X81-βAla}-EGTFTSDYSI[Aib]LDKIAQK([AEEA-AEEA-γGlu-C20 diacid])AFVQWLIAGGPSSGAPPPS-NH2), for which the EC50 in assay [1] is greater than 1 µM; in assay [2], less than 1 µM; in assay [3], 0.001 to 0.01 µM; in assay [4] it was 0.001 to 0.01 µM. Moreover, the results for the Emax in assay [3] and in assay [4] were 127% and 113%, respectively.
For the compound `CCOc1cnn(C(C)(C)C(=O)NCCC(=O)N[C@@H](CCC(=O)O)C(=O)NCC(=O)N[C@H](C(=O)N[C@@H](Cc2ccccc2)C(=O)N[C@H](C(=O)N[C@@H](CO)C(=O)N[C@@H](CC(=O)O)C(=O)N[C@@H](Cc2ccc(O)cc2)C(=O)N[C@@H](CO)C(=O)N[C@H](C(=O)NC(C)(C)C(=O)N[C@@H](CC(C)C)C(=O)N[C@@H](CC(=O)O)C(=O)N[C@@H](CCCCN)C(=O)N[C@H](C(=O)N[C@@H](C)C(=O)N[C@@H](CCC(N)=O)C(=O)N[C@@H](CCCCNC(=O)COCCOCCNC(=O)COCCOCCNC(=O)CC[C@H](NC(=O)CCCCCCCCCCCCCCCCCCC(=O)O)C(=O)O)C(=O)N[C@@H](C)C(=O)N[C@@H](Cc2ccccc2)C(=O)N[C@H](C(=O)N[C@@H](CCC(N)=O)C(=O)N[C@@H](Cc2c[nH]c3ccccc23)C(=O)N[C@@H](CC(C)C)C(=O)N[C@H](C(=O)N[C@@H](C)C(=O)NCC(=O)NCC(=O)N2CCC[C@H]2C(=O)N[C@@H](CO)C(=O)N[C@@H](CO)C(=O)NCC(=O)N[C@@H](C)C(=O)N2CCC[C@H]2C(=O)N2CCC[C@H]2C(=O)N2CCC[C@H]2C(=O)N[C@@H](CO)C(N)=O)[C@@H](C)CC)C(C)C)[C@@H](C)CC)[C@@H](C)CC)[C@@H](C)O)[C@@H](C)O)c1` [Compound 152] ({X42-βAla}-EGTFTSDYSI[Aib]LDKIAQK([AEEA-AEEA-γGlu-C20 diacid])AFVQWLIAGGPSSGAPPPS-NH2), the EC50 was greater than 1 µM in assay [1], greater than 1 µM in assay [2], 0.0001 to 0.001 µM in assay [3] and 0.01 to 0.1 µM in assay [4]. Moreover, the maximal response (Emax) in assay [3] is 98%; in assay [4], 104%.
